Laboratory results reported in PMC10813753 (Biology, 2024).
“And” between values parts separate entries of the source, which are not always exact repeats. Equal entries are not always repeated.

Key:
MCF-7 cells (breast) = assay: MTT viability assay MCF-7; format: cell-based, human; conditions: 72 h
Experimental: (§1) A panel of five tumor cell lines and two normal cell lines was used to preliminarily test the cytotoxicity of compounds 1–4, and the experiments were conducted as previously reported. All human cell lines were acquired from American Type Culture Collection (ATCC): tumor PC-3 and DU145 (prostate), HeLa (cervix), MCF7 (breast) and HT29 (colorectal) and healthy HFF-1 (fibroblast) and RWPE-1 (prostate). The cell catalogue reference and culture media used in the experiments were CRL-1435^TM, RPMI (PC-3), HTB-81™, RPMI (DU145), CCL-2^TM, DMEM (HeLa), HTB-22^TM, DMEM (MCF-7), HTB-38^TM, modified McCoy’s 5a medium, Catalogue No. 30-2007 (HT29), SCRC-1041^TM, DMEM (HFF-1) and CRL-11609^TM, Keratinocyte-SFM (RWPE-1). Culture media were purchased from Merck: RPMI-1640, DMEM + 10% FBS (Fetal Bovine Serum) + […] (penicillin/streptomycin/amphotericin B). Media and supplements for RWPE-1 were from ThermoFisher (17005075, Madrid, Spain). MCF7 cells were additionally supplemented with insulin (0.001 mg/mL in 500 mL media). Cells were kept at 37 °C (5% CO2), and culture media were renewed three times per week. When the cells reached 80–100% confluence, they were trypsinized and centrifuged, and the concentration was adjusted to each experiment. Cells were seeded at a density of ~10,000 cells/well into 24-well plates. The cells were treated with ligands 1–4 or the cytotoxic agents PhenQE8, PhenDC3 or cisplatin at different concentrations (10 nM–100 μM). Compound solutions were freshly prepared using the appropriate culture medium. Triplicate experiments were run. For MTT viability assays, after 72 h incubation, 50 μL of MTT (5 mg/mL) was added, and an additional incubation of 4 h was allowed. The medium in each well was then replaced by DMSO, and the absorbance was measured at 570 nm using an ELISA plate reader. Absorbances were normalized using negative controls (untreated cells, in triplicate, with a maximum of 0.9% DMSO content). Dose–response curves were obtained by plotting the percentage of viable cells versus logarithmic compound concentration. IC50 values were determined using Kaleidagragh^TM (3.52) software by adjusting the data to Equation 1/(1 + 10^(m2*(log(m1) − x))); m1 = 0.000003; m2 = 1.

[1] = tested on: telomeric G4 sequence F21T; assay: FRET-based DNA melting assay, telomeric G4 F21T; format: binding, human; conditions: 0.2 μM F21T, renaturing process, K+ buffer
Experimental: FRET DNA melting assays were conducted following standard reported procedures. Briefly, the employed oligonucleotides F21T (5′-FAM—(GGG TTA)3GGG—TAMRA-3′) and F10T (5′-FAM—TAT AGC TA TA/Sp18/TA GCT ATA—TAMRA-3′) were dissolved in buffer at 0.25 μM concentration and annealed by heating at 90 °C for 5 min, and then immediately cooling to 0 °C, in the case of F21T, or slowly to rt (F10T) during a period of 3 hours. The solutions were allowed to stand at 4 °C at least overnight.
Tested compounds 1–4 were dissolved in water with up to a maximum 10% DMSO (50 μM stock solution). Each stock solution was then gradually diluted to reach the final concentrations in the assay from 0 to 10 μM and a fixed 0.2 μM concentration of target sequences F21T or F10T. The buffer used for G4 sequence F21T was 10 mM KCl, 90 mM LiCl and 10 mM Li-cacodylate, pH 7.3. The buffer employed for F10T was 100 mM LiCl and 10 mM Li-cacodylate.
The melting process program consisted of an incubation step at 24 °C for 5 min and then a temperature ramp (1 °C/min rate) with fluorescence recordings at every degree up to 95 °C. Subsequently, the microplate with the samples (50 μL) was incubated for 5 min at 96 °C and then gradually cooled by using a temperature ramp of −1 °C/min, with fluorescence measurements at every degree down to 25 °C. The melting and refolding (or renaturing) curves were registered based on the change in emission of the FAM (6-carboxyfluorescein) fluorophore, excited at 492 nm and emitting at 516 nm. Melting temperature values (Tm) were determined from replicate experiments using normalized curves and considering mid-transition T1/2 temperatures.

[2] = tested on: HFF-1 cells (healthy fibroblasts); assay: MTT viability assay HFF-1; format: cell-based, human; conditions: 72 h
Experimental: as §1

Calf thymus CT DNA = assay: CT DNA viscosity titration; format: binding; conditions: 25 °C, 10 mM sodium phosphate buffer pH 7.2, mean slope
Experimental: The DNA viscosity titration was conducted as previously reported. For that purpose, Calf thymus CT DNA was used. DNA and compound 1 solutions were freshly prepared in 10 mM NaH2PO4/Na2HPO4 buffer, pH = 7.2. CT DNA solutions (~0.35 mM, nt) were equilibrated for 20 min at 25 °C in a thermostated bath, and 20 flow times were then recorded. Several aliquots (ca. 25–60 μL each) of a solution of ligand 1 (~1.8 mM) were sequentially added. After a 20 min equilibration at 25 °C, flow times were registered. Finally, viscosities (μ) were calculated at each titration point, from the averaged flow times recorded and the viscometer constant. The viscosity graphs were obtained by plotting (μ/μ0)^1/3 versus r, the molar ratio of bound ligand to DNA. The parameter μ0 represents the DNA solution viscosity in the absence of a compound.
Viscosity titration assays are known to provide useful information, mainly in reversible dsDNA-ligand non-covalent binding modes, and, especially, they are normally used to differentiate between classical DNA intercalants from groove or external binders. The theory of Cohen and Eisenberg establishes that the existence (or not) of changes in the viscosity of a DNA solution upon binding to small-molecule ligands could be correlated to the ligand binding mode. […]

[3] = tested on: PC-3 cells (prostate tumor); assay: MTT viability assay PC-3; format: cell-based, human; conditions: for selectivity index (SI), prostate tumor PC3 versus prostate non-tumor RWPE-1: from MTT IC50 values
Experimental: as §1

For “2,2′-(1,10-Phenanthroline-2,9-diyl)-bis(methylene)-bis(hydrazine-1-carbothioamide) [compound 1]”, the IC50 (MCF-7 cells (breast)) was 78.4 ± 11 µM, the “ΔTm of telomeric G4 F21T” value ([1]; 5 μM compound) was ~ 7 °C and the “ΔTm of telomeric G4 F21T” value ([1]; 10 μM compound) was ~ 12 °C. For the same substance, the IC50 [2] was 74.4 ± 3.1 µM, the “viscosity slope, (η/ηo)^1/3 versus r” value (Calf thymus CT DNA) was “ca. 0.13” and the IC50 ([3]; MTT, 72 h) was 18 µM and 18.4 µM. For the same substance, the “selectivity index (SI), prostate tumor PC3 versus prostate non-tumor RWPE-1” value [3] was 5 and the “selectivity index (SI), prostate tumor PC3 versus prostate non-tumor RWPE-1” value ([3]; listed as neutral derivative) was ~ 5.
